Test system: Gastrin receptor-expressing rat pancreatic cells (NIH line AR42J)
Test: Viable cell count of AR42J cells after about five days of exposure
Type: cell-based
Conditions: for % Viable Cells: rat
Procedure: The number of viable cells left in the culture after the five day period was measured, and compared to a control culture that was not exposed either compound. The number of cells remaining in each of the experimental cultures, expressed as a percentage of viable cells in the control culture, is provided in Table 4, below.

COc1ccc2c3c(c4ccccc4cc13)C(=O)N(CCN(C)CCN)C2=O [MD117, 2-{2-[(2-aminoethyl)methylamino]ethyl}-6-methoxy-1,2-dihydro-3H-dibenzo[de,h]isoquinoline-1,3-dione]
cell killing at the tested concentrations (AR42J, 10, 50, 100 and 1000 nM, result in words): killing all cells in the culture at each of the tested concentrations
CC50 (Rattus norvegicus, AR-42J, 120 h, read-out: LC50 (median concentration required for death of 50% of the cell population), AR42J, about five days, calculated from the data): 3 nM
% Viable Cells (0.01 µM): −100%
% Viable Cells (0.05 µM): −100%
% Viable Cells (0.1 µM): −100%
% Viable Cells (1 µM): −100%

Reference: US8008316B2, “Azonafide derived tumor and cancer targeting compounds” (The United States of America as represented by the …, priority 2006, dated 2011)
